Results: ChEMBL document CHEMBL1201862, “PubChem BioAssay data set” (2004)
The source made the active and inactive calls. For most assays here, no stated cut-off is given here; in the data, actives have a measured EC50 and inactives only a lower limit.

What was measured:
[1] = Luminescence Cell-Based Dose Response HTS to Identify Inhibitors of 5'UTR Stem-Loop Driven Prion Protein mRNA Translation in H4 Neuroglioblastoma Cells. [Related pubchem assays: 1827 (Project Summary), 1813 (Primary HTS)]; assay type: functional
[2] = inhibitors of SNCA 5'UTR-driven reporter translation, confirmation, H4 neuroglioma cells, luminescence (AID 1988); assay type: functional, cell-based
[3] = cytotoxicity in HEK-293T cells, dose response, cytotoxicity control for BCR NF-kB inhibitor project, luminescence, B-cell screen hits (AID 489021); assay type: functional, cell-based;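 further: HEK-293T cells carrying an NF-kB luciferase reporter; cells exposed to compound for about 14 hours before viability readout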
[4] = inhibitors of firefly luciferase expression or activity, dose response, H4 neuroglioma cells, luminescence (AID 1990); assay type: functional, cell-based
[5] = system: HEK293; assay: cells; assay type: functional, cell-based; conditions: Homo sapiens
[6] = system: HEK293; assay: cells; assay type: functional, cell-based; conditions: Homo sapiens; remark: listed apart in the source
[7] = system: HEK293; assay: NOD1 signaling inhibitors, primary screen, cell-based, luminescence, uHTS (AID 1578); assay type: functional; conditions: Homo sapiens
[8] = system: HEK293; assay: inhibitors of LMP1-driven NF-kB reporter, dose response, cell-based, HEK293, luciferase, cherry-pick (AID 588343); assay type: functional, Homo sapiens; conditions: hek293
[9] = system: HEK293; assay: NOD2 signaling inhibitors in MDP-stimulated cells, cell-based, uHTS, luminescence (AID 2001); assay type: functional; conditions: Homo sapiens
[10] = Luminescence Cell-Based Dose Response HTS to Identify Activators of Luciferase Translation or Activity in H4 […] Cells. [Related pubchem assays: 1829 (Project Summary), 1814 (Primary HTS)]; assay type: functional
[11] = system: H4; assay: Luminescence Cell-Based Dose Response HTS to Identify Activators of 5'UTR Stem-Loop Driven Prion Protein mRNA Translation in H4 Neuroglioblastoma Cells. [Related pubchem assays: 1829 (Project Summary), 1814 (Primary HTS)]; assay type: functional; conditions: Homo sapiens
[12] = target: T1, Heat shock factor protein 1 (Mus musculus, UniProt P38532); assay: inhibition of MG132-induced HSE-luciferase signal, confirmation, cell-based, NIH3T3, luminescence, dose retest (AID 2382); assay type: functional;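 further: NIH3T3 fibroblasts with HSF1-driven luciferase reporter stressed by proteasome inhibitor MG132; luminescence from HSF1-driven luciferase expression after 8 hours of MG132 stress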
T1 sequence (P38532 whole entry): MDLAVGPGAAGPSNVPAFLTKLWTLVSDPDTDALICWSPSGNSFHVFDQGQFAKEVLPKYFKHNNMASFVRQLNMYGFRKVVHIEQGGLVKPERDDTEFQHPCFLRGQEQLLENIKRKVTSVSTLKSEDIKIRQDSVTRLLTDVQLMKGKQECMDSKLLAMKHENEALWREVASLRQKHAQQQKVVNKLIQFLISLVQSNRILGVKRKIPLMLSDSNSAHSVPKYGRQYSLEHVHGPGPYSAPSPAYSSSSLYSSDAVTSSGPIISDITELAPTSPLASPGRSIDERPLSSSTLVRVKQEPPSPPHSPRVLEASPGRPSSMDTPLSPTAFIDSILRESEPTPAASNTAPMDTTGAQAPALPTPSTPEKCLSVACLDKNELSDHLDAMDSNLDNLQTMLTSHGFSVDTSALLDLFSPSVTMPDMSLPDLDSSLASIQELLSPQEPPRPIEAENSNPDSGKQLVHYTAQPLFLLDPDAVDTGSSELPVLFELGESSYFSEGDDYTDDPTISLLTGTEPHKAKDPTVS

[13] = target: T2, Protein skinhead-1 (Caenorhabditis elegans, UniProt P34707); assay type: functional
T2 sequence (P34707 whole entry): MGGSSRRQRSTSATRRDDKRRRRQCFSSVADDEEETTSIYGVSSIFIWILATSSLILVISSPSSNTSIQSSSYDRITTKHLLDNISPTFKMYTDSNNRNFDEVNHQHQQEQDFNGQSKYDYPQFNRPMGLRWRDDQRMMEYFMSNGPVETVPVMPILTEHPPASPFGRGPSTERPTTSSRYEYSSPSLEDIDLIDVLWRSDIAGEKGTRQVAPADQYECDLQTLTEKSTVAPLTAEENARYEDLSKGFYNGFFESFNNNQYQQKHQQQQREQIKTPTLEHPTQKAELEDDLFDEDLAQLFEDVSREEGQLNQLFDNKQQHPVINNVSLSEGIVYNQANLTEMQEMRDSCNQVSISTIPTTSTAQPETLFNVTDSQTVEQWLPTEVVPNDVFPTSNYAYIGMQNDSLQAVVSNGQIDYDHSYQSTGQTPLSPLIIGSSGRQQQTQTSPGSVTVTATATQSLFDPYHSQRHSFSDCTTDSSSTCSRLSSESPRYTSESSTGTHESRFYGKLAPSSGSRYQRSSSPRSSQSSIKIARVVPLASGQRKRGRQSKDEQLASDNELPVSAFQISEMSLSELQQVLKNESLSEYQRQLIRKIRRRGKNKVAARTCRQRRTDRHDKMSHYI

[14] = Luminescence Cell-Based Dose Confirmation HTS to Identify Activators of 5'UTR Stem-Loop Driven Alpha-Synuclein mRNA Translation in H4 Neuroglioblastoma Cells. [Related pubchem assays: 1829 (Project Summary), 1814 (Primary HTS)]; assay type: functional
[15] = target: T3, Aminopeptidase N (Plasmodium falciparum FcB1/Columbia, UniProt O96935); assay: P. falciparum M1AAP inhibitors, biochemical, fluorogenic H-Leu-NHMec substrate, 1536-well (AID 1445); parameters: species or system Plasmodium falciparum 3D7, 3D7
T3 sequence (O96935 whole entry): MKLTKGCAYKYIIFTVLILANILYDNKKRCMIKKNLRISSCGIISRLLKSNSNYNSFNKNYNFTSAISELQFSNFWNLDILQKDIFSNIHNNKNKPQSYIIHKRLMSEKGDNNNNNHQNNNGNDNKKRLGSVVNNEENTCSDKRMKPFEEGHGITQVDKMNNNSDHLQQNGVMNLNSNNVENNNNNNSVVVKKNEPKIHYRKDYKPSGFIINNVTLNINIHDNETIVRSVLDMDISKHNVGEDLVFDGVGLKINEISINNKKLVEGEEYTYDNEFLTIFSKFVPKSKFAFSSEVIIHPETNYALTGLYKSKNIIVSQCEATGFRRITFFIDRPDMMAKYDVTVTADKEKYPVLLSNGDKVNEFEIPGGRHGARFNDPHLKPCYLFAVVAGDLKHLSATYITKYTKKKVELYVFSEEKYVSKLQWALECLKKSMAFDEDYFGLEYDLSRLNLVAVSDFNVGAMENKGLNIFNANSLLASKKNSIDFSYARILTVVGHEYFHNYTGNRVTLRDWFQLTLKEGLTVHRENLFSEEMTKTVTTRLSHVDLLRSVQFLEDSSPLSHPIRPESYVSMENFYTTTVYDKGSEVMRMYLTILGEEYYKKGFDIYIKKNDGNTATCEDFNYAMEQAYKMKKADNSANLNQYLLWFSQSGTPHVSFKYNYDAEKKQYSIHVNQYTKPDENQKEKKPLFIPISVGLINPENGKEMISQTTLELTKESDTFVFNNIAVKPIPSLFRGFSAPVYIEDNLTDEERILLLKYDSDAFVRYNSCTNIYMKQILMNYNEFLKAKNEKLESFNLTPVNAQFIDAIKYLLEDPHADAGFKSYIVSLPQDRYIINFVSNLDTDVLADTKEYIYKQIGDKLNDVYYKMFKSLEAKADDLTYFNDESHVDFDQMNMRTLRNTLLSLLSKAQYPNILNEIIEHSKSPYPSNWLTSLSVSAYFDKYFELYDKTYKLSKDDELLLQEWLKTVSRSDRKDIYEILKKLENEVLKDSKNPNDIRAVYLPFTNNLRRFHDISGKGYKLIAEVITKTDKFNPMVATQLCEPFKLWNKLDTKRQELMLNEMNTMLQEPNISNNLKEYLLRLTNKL

[16] = target: T4, Histone-lysine N-methyltransferase NSD2 (Homo sapiens, UniProt O96028); assay type: biochemical
T4 sequence (O96028 whole entry): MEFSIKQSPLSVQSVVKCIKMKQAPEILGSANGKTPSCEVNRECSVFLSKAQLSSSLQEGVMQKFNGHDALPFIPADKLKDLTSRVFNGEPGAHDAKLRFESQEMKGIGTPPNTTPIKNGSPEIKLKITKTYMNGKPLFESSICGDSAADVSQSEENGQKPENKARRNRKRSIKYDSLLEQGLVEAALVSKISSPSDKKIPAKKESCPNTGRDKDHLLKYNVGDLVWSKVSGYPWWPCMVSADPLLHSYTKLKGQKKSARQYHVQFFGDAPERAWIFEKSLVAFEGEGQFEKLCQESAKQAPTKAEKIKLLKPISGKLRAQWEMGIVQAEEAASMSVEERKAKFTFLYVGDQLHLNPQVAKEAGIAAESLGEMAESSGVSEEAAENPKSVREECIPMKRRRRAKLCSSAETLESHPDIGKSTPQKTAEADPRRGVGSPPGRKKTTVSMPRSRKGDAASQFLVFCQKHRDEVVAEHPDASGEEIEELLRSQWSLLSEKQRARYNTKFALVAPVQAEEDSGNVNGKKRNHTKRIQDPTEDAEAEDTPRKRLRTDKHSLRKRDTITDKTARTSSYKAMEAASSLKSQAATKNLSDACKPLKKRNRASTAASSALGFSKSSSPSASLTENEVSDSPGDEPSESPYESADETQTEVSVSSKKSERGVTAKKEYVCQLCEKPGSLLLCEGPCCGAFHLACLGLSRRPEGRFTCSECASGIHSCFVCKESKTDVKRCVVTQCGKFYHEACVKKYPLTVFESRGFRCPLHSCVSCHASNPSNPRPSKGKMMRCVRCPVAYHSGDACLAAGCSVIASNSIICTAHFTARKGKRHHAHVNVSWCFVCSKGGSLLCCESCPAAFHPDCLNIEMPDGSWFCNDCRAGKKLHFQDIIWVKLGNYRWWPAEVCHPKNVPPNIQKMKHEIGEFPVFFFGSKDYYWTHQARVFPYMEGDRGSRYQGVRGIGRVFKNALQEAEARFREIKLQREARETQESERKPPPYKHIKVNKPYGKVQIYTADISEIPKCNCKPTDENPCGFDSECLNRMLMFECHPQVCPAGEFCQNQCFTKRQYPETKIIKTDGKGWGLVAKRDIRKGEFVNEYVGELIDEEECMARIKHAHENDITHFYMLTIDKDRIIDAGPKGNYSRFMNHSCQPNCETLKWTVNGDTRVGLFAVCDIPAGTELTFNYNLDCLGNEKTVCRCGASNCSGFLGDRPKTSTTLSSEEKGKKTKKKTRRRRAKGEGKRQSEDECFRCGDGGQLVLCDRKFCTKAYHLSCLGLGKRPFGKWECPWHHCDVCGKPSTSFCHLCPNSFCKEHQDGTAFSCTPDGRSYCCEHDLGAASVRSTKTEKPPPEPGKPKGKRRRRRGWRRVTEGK

[17] = inhibitors of intracellular T. cruzi replication, confirmation, NIH3T3 host cells, beta-gal luminescence (AID 2044); assay type: functional, cell-based;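 further: intracellular parasites grown in NIH/3T3 mouse fibroblasts as host cells; luminescent beta-galactosidase reporter signal from transgenic T. cruzi replicating inside host cells; inhibitors lower the luminescence signal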
[18] = cytotoxicity toward NIH3T3 fibroblasts, dose response, counter-screen, cell-based, ATP luminescence, mouse fibroblasts (AID 2010); assay type: functional;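 further: cells exposed to compound for about 90 hours before reading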
[19] = target: Luciferin 4-monooxygenase (Photinus pyralis, UniProt P08659); assay: Counter Screen for Luciferase-based Assay Positives. [Related pubchem assays: 620, 618, 411 ]
[20] = system: HT-1080; assay: cytotoxicity in HT1080 fibrosarcoma cells, cell-based, fluorescence readout (AID 620); assay type: functional; conditions: Homo sapiens

Chain of Luciferin 4-monooxygenase (P08659 whole entry): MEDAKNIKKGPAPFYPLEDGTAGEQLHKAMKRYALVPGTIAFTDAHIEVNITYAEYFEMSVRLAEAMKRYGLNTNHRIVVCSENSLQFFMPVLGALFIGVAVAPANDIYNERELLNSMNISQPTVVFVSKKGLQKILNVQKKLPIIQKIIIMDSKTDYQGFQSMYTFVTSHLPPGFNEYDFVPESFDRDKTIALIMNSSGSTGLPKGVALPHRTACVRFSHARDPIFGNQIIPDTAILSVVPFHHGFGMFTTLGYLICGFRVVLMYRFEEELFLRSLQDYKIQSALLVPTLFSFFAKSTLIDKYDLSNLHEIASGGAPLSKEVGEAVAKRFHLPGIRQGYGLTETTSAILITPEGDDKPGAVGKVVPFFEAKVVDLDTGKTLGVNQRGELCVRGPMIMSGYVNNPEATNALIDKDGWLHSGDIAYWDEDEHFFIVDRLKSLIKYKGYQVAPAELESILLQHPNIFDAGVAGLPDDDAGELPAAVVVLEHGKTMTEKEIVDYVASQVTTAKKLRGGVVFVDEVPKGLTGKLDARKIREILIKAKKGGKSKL

Compound: COc1ccccc1/C=C1\SC(=S)N(CCC(=O)Nc2cc(C)on2)C1=O
- EC50 [1]: 27.8 µM (active)
- EC50 [2]: > 120 µM (not active)
- IC50 [3]: > 80 µM (inactive)
- EC50 [4]: 30 µM (active)

Compound: CCN1CCN(Cc2ccc(NC(=O)c3ccc(C)c(NC(=O)c4ccno4)c3)cc2C(F)(F)F)CC1
- IC50 [5]: > 20 µM (inactive)
- IC50 [6]: > 20 µM (inactive)
- EC50 [7]: 7.63 µM (active)
- AC50 [8]: 0.0692 µM (active)
- IC50 [9]: 11.9 µM (inactive)

Compound: Cc1cc(C)nc(Sc2ccc([N+](=O)[O-])cc2[N+](=O)[O-])n1
- IC50 [5]: > 20 µM (inactive)
- IC50 [3]: > 80 µM (inactive)
- IC50 [6]: 6.2 µM (active)
- EC50 [7]: > 20 µM (inactive)
- IC50 [9]: 14.3 µM (inactive)

Compound: Cc1ccc2c(c1)c(C)c(C)n2CC(O)Cn1nnc2ccccc21 (stereo not given)
- EC50 [10]: 63.4 µM (active)
- EC50 [11]: 22.3 µM (active)
- EC50 [12]: > 195 µM (not active)
- IC50 [13]: > 100 µM (inactive)
- EC50 [14]: 20.9 µM (active)

Compound: Cc1ccc(C(=O)NC2CCN(CC(=O)Nc3cccc([N+](=O)[O-])c3)CC2)cc1
- IC50 [15]: 102 µM (active)

Compound: CCCCN(CC)CCNC(=O)c1cc2c(-c3ccccc3F)nn(C)c2s1
- EC50 [10]: > 120 µM (not active)
- EC50 [11]: > 120 µM (not active)
- AC50 [16]: > 20 µM (inactive)
- EC50 [14]: 8.55 µM (active)

Compound: COc1ccc(-c2ccc(C(C)=O)cc2)cc1[C@H]1[C@H]2C=CC[C@@H](C)[C@@H]2C(=O)N1Cc1ccccc1
- EC50 [17]: 1.15 µM (active)
- EC50 [18]: 18.9 µM (active)
- IC50 [3]: > 80 µM (inactive)

Compound: Cc1c(CCC(=O)O)c(=O)oc2cc3occ(-c4ccccc4)c3cc12
- IC50 [15]: 26.7 µM (active)

Compound: O=C(COC(=O)c1cc(S(=O)(=O)Nc2ccccc2Cl)ccc1O)Nc1nc2ccccc2s1
- IC50 [15]: 44.4 µM (active)

Compound: CO/C(O)=C1\CSC\C1=N\c1ccccc1NC(=O)c1ccccc1C(=O)O
- EC50 [10]: > 120 µM (not active)
- EC50 [11]: 119 µM (active)
- EC50 [14]: > 120 µM (not active)

Compound: CCOc1ccc(-c2cc(CCCC(=O)NCCCOC)no2)cc1
- IC50 [3]: > 80 µM (inactive)
- EC50 [19]: > 100 µM (not active)
- EC50 [20]: > 50 µM (not active)
- EC50 [4]: 0.841 µM (active)

Compound: CCc1cc2c(CN3CCN(C)CC3)cc(=O)oc2cc1O
- IC50 [15]: 47.7 µM (active)

Compound: O=C(CCCO)N/N=C/c1cc(Br)ccc1O
- IC50 [15]: 21.7 µM (active)

Compound: Cc1cccc(-n2nc3c(c2NC(=O)C2CC2)CS(=O)(=O)C3)c1C
- EC50 [10]: > 120 µM (not active)
- EC50 [11]: > 120 µM (not active)
- IC50 [13]: > 100 µM (inactive)
- EC50 [14]: > 120 µM (not active)

Compound: O=C(Nc1ccc2oc(-c3ccccc3)nc2c1)c1cccs1
- EC50 [10]: 0.131 µM (active)
- EC50 [11]: > 120 µM (not active)
- EC50 [14]: < 0.1 µM (active)
